One series addresses Histone deacetylase. Kind of series: Inhibition of HDAC in human HeLa nuclear extracts using fluorometric substrate incubated for 30 mins by fluorescence plate reader analysis. Type of series: cell-based.
In a further series the target is Histone deacetylase 3 (Homo sapiens, UniProt O15379). In words: Inhibition of recombinant human His-tagged HDAC3 expressed in baculovirus insect cells using Ac-Leu-Gly-Lys (Ac)-AMC as substrate preincubated for 5 mins followed by substrate addition and measured after 30 mins by fluorescence microtiter plate reader assay.
The target in a further series is T1, Histone deacetylase 8 (Homo sapiens, UniProt Q9BY41).
T1 sequence (Q9BY41 whole entry): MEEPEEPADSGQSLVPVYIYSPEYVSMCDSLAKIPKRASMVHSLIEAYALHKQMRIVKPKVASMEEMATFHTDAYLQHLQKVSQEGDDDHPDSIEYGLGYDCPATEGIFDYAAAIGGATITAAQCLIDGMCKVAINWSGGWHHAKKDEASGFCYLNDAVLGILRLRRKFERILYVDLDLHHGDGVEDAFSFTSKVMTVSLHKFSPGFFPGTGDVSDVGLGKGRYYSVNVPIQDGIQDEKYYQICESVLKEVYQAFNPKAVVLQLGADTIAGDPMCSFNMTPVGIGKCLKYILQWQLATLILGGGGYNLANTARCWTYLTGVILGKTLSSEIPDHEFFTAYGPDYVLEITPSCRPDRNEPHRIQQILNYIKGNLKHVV
In words: Inhibition of full length recombinant human C-terminal His tagged HDAC8 expressed in baculovirus infected Sf9 insect cells using Ac-Leu-GlyLys (Tfa)-AMC as substrate preincubated for 5 mins followed by substrate addition and measured after 30 mins by fluorescence microtiter plate reader assay.

Another series concerns HCT-116. In words: cells. Type of series: functional, cell-based. The conditions noted are these: Homo sapiens, HCT-116, 48 h.
The next series has as its system MCF7. In words: cells. The series is classed as functional, cell-based. To be noted: Homo sapiens, MCF7, 48 h.
Series [1] in a line: Cytotoxicity against human Jurkat cells assessed as reduction in cell viability incubated for 72 hrs by CCK-8 assay. In general terms: Tetrazolium dyes change colour on reduction, which living cells bring about.
The subject of series [2] is B16-F10. In words: cells. Type of series: functional, cell-based. The conditions noted are these: Mus musculus, B16-F10, 48 h.
Description: Antiproliferative activity against mouse B16-F10 cells assessed as inhibition of cell proliferation measured after 48 hrs by MTT assay
Series [3] has as its system B16-F10. Kind of series: Induction of apoptosis in mouse B16-F10 cells assessed as increase in apoptotic cells at 0.1 uM incubated for 48 hrs by Annexin V-FITC/PI staining based flow cytometry analysis relative to control. Type of series: functional.
The subject of series [4] is B16-F10. In words: Induction of apoptosis in mouse B16-F10 cells assessed as increase in apoptotic cells at 0.5 uM incubated for 48 hrs by Annexin V-FITC/PI staining based flow cytometry analysis relative to control. Type of series: functional. A general note: Flow cytometry measures light scatter and fluorescence of single cells or particles in a stream.
Series [5] deals with B16-F10. In words: Induction of apoptosis in mouse B16-F10 cells assessed as increase in apoptotic cells at 1 uM incubated for 48 hrs by Annexin V-FITC/PI staining based flow cytometry analysis relative to control. Type of series: functional.
In series [6] the test system is Jurkat. Kind of series: Induction of apoptosis in human Jurkat T cells assessed as increase in Bax protein expression at 0.2 to 2 uM measured after 6 hrs by Western blot analysis. Type of series: functional, cell-based. To be noted: dose 0.2-2 µM.
Series [7] deals with Jurkat. Kind of series: Induction of apoptosis in human Jurkat T cells assessed as upregulation of acetylated Ku70 expression measured after 6 hrs by Western blot analysis. The conditions noted are these: dose 0.2-2 µM. The series is classed as functional, cell-based. On the technique in general: In western blotting, separated proteins are transferred to a membrane and probed.

Series [8] concerns Jurkat. In words: Induction of apoptosis in human Jurkat T cells assessed as downregulation of Bcl-2 expression at 0.2 to 2 uM incubated for 6 hrs by Western blot analysis. Type of series: functional, cell-based. To be noted: dose 0.2-2 µM.
In series [9] the test system is Jurkat. In words: Upregulation of acetylated alpha-tubulin expression in human Jurkat T cells incubated for 6 hrs by Western blot analysis. Type of series: functional, cell-based. To be noted: dose 0.1-2 µM.
The subject of series [10] is B16-F10. Kind of series: Upregulation of acetylated alpha-tubulin expression in mouse B16-F10 cells incubated for 6 hrs by Western blot analysis. The series is classed as functional, cell-based. To be noted: dose 0.1-2 µM.
In series [11] the test system is B16-F10. Kind of series: Upregulation of alpha-tubulin expression in mouse B16-F10 cells at 0.1 to 2 uM incubated for 6 hrs by Western blot analysis. Type of series: functional, cell-based. The conditions noted are these: dose 0.1-2 µM.
The subject of series [12] is Jurkat. In words: Upregulation of alpha-tubulin expression in human Jurkat T cells at 0.1 to 2 uM incubated for 6 hrs by Western blot analysis. Type of series: functional, cell-based. To be noted: dose 0.1-2 µM.
The subject of series [13] is Jurkat. Kind of series: Effect on acetyl-SMC3 expression level in human Jurkat T cells at 0.1 to 0.8 uM incubated for 6 hrs by Western blot analysis. The conditions noted are these: dose 0.1-0.8 µM. Type of series: functional, cell-based.
The subject of series [14] is Jurkat. In words: Effect on acetyl-H3 expression level in human Jurkat T cells at 0.1 to 0.8 uM incubated for 6 hrs by Western blot analysis. Type of series: functional, cell-based. To be noted: dose 0.1-0.8 µM.
The test system of series [15] is Jurkat. In words: Effect on acetyl-H3 expression level in human Jurkat T cells at 0.1 to 0.4 uM incubated for 6 hrs by Western blot analysis. The series is classed as functional, cell-based. To be noted: dose 0.1-0.4 µM.
In series [16] the test system is B16-F10. In words: Effect on acetyl-H3 expression level in mouse B16-F10 cells at 1 to 4 uM incubated for 6 hrs by Western blot analysis. Type of series: functional, cell-based. The conditions noted are these: dose 1-4 µM.

One may read the IC50 as the concentration at which inhibition is half-maximal. As a reminder, the pIC50 is the IC50 on a negative log10 scale, so that one unit is a factor of ten.

SMILES strings stand for the structures. pIC50: −log10 of the molar value. Activity calls are given as the source filed them. The calls are words filed in the database; no cut-off is given here.

Histone deacetylase 3, sequence (O15379 whole entry): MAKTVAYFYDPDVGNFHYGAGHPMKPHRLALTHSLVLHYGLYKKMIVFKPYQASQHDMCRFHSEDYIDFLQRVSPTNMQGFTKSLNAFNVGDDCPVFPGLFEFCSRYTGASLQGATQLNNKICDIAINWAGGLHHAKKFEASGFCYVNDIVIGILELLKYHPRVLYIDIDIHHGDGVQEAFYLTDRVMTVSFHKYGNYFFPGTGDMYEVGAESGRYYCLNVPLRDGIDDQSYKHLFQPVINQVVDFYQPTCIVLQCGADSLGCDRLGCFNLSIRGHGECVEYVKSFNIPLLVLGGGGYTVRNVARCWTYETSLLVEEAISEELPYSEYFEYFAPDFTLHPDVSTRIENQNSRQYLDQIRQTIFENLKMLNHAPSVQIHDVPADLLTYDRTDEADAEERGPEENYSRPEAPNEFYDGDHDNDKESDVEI
Description for HCT-116: Antiproliferative activity against human HCT-116 cells assessed as inhibition of cell proliferation measured after 48 hrs by MTT assay
Description for MCF7: Antiproliferative activity against human MCF7 cells assessed as inhibition of cell proliferation measured after 48 hrs by MTT assay

For the compound `COc1ccc(-c2ncc(C(=O)NCCCCCCC(=O)NO)[nH]2)c(OC)c1`, the IC50 on Histone deacetylase was determined as 0.08 µM. The negative-log IC50 (pIC50) is 5.15 at Histone deacetylase 3; 4.84 on Histone deacetylase 8; 5.93 in the series on HCT-116; 5.57 with MCF7; 5.28 in the series with B16-F10 [2]. Besides, the IC50 at 72 h in series [1] is 0.23 µM. Moreover, the Activity was 16.58% in the series on B16-F10 [3]; 38.71% in the series with B16-F10 [4]; 57.73% in the series on B16-F10 [5]; “Dose-Dependent Effect” with Jurkat [7]; “Dose-Dependent Effect” in the series with Jurkat [9]; “Dose-Dependent Effect” in the series on B16-F10 [10]. Further, the outcome in the series on Jurkat [6], with Jurkat [8], in the series on Jurkat [13], in the series with Jurkat [14], in the series with Jurkat [15] and with B16-F10 [16] was Active. Further, the outcome with B16-F10 [11] and with Jurkat [12] was inactive.
`COc1ccc(-c2ncc(C(=O)NCCCCCCC(=O)NO)s2)c(OC)c1` gave an IC50 on Histone deacetylase of 0.04 µM. Further, the pIC50 on Histone deacetylase 3 was 4.98; on Histone deacetylase 8, 5.04; with HCT-116 it was 6.29; in the series with MCF7, 6.04; with B16-F10 [2], 5.64. For the same compound, the IC50 at 72 h in series [1] was 0.16 µM. The Activity was 57.09% in the series on B16-F10 [3]; 78.98% in the series on B16-F10 [4]; 87.91% in the series with B16-F10 [5]; “Dose-Dependent Effect” in the series on Jurkat [7]; “Dose-Dependent Effect” with Jurkat [9]; “Dose-Dependent Effect” in the series on B16-F10 [10]. The result in the series on Jurkat [6], with Jurkat [8], with Jurkat [13], with Jurkat [14], with Jurkat [15] and with B16-F10 [16] was Active. The outcome in the series on B16-F10 [11] and in the series with Jurkat [12] was inactive.

For the origin of these results see ChEMBL document CHEMBL5042524, “Discovery of Novel Histone Deacetylase 6 (HDAC6) Inhibitors with Enhanced Antitumor Immunity of Anti-PD-L1 Immunotherapy in Melanoma” (J Med Chem, 2022).
